Measured values reported in patent publication US8580769B2, “Treatment of obesity, metabolic syndrome, and diabetes with protein kinase C inhibitors” (The United States of America as represented by the …, priority 2011, dated 2013).

Key:
liver of Het-MλKO mice = assay: hepatic mRNA and nuclear NFκB levels in Het-MλKO mice; type: in vivo, mouse; conditions: for hepatic ACC mRNA / hepatic FAS mRNA: 7-day treatment s.c. (ATM 60 mg/kg; ICAPP 0.4 mg/kg); for hepatic G6 Pase expression / hepatic PEPCK expression / hepatic SREBP-1c mRNA: s.c. once daily (ATM 60 mg/kg; ICAPP 0.4 mg/kg; ICAP 0.5 mg/kg)
From the text: In Vivo Mouse Studies: Male wild type (WT) and heterozygous muscle-specific PKC-λ knockout (Het-MλKO) mice were generated as described (Farese et al., J. Clin. Invest. 117:2289-2301, 2007) and used at 6-12 months of age, when the O/MS/T2DM phenotype in MλKO mice is well-developed. Mice were housed in a temperature-controlled environment with alternating 12-hour light and dark cycles, and fed ad libitum with standard chow (Harlan Teklad 20/18 with 5% fat, (10% of calories from fat)). All experimental procedures in mice were approved by the Institutional Animal Care and Use Committees of the Roskamp Institute and the University of South Florida College of Medicine, and the James A. Haley Veterans Administration Medical Center Research and Development Committee, Tampa, Fla.
(ICAPP; prepared by Southern Research, Birmingham, Ala.) at 0.4 mg/kg body weight. On the morning of the eighth day of inhibitor treatment, mice were injected intraperitoneally (IP) with 0.9% saline or saline containing 1 U insulin/kg body weight 15 minutes before sacrifice, an optimal time for studies of insulin stimulation of aPKC and Akt in liver, muscle and adipose tissues (Standaert et al., J. Biol. Chem. 279:24929-24934, 2004; Sajan et al., J. Lipid Res. 50:1133-1145, 2009; Sajan et al., Diabetologia 52:1197-1207, 2009; Farese et al., J. Clin. Invest. 117:2289-2301, 2007). After killing, blood, liver, quadriceps muscle and abdominal adipose tissues were rapidly removed and homogenized in buffer with a POLYTRON® homogenizer.
mRNA Measurements: As previously described (Sajan et al., J. Lipid Res. 50:1133-1145, 2009; Sajan et al., Diabetologia 52:1197-1207, 2009; Farese et al., J. Clin. Invest. 117:2289-2301, 2007), tissues were added to TRIZOL® reagent (Invitrogen) and RNA was extracted and purified with the RNEASY® Mini-Kit (Qiagen; Valencia, Calif.) and RNAase-free DNAase set (Qiagen) as per kit instructions, quantified by measuring A260/A280, further checked for purity by electrophoresis on 1.2% agarose gels, and mRNA quantified by quantitative real-time reverse transcriptase-polymerase chain reaction (RT-PCR). Reverse transcription was accomplished with TAQMAN® reverse transcription reagent from Applied Biosystems (Foster City, Calif., USA). mRNAs were measured with a SYBR® Green kit (Applied Biosystems) using the nucleotide primers shown in Table 1.
Nuclear Preparations: As previously described (Sajan et al., J. Lipid Res. 50:1133-1145, 2009; Sajan et al., Diabetologia 52:1197-1207, 2009; Farese et al., J. Clin. Invest. 117:2289-2301, 2007), liver nuclei were prepared with NE-PER® Nuclear and Cytoplasmic Extraction Reagents (Pierce Biotechnology/Thermo Scientific, Waltham, Mass.; Cat. No. 78833) Levels of the active p65/RelA subunit of NFκB were measured in these nuclear preparations.

total (ι plus ζ) aPKC = assay: aPKC activity and phosphorylation in intact human hepatocytes; type: cell-based; conditions: for phosphorylation of aPKC auto(trans)phosphorylation sites (p-threonine-555/560-PKC-ι/ζ): intact human hepatocytes
From the text: Human cryo-preserved hepatocytes (70-90% viability) were obtained from the Zen-Bio Corp (Research Triangle Park, North Carolina). These hepatocytes were harvested after perfusion with collagenase-containing buffer of livers surgically removed from non-diabetic patients (2 females and 6 males; ages, 43-60 years, 51±3 (mean±SEM); BMI, 23-35, 30±2) and T2DM patients (2 females and 3 males, ages, 46-68 years, 60±4; BMI, 27±2; all insulin-requiring) who had been maintained as transplant donors, but were ultimately rejected for administrative reasons. To maximize the importance of comparative differences, hepatocytes from T2DM and non-diabetic patients, and of similar age and sex, were routinely incubated and assayed side-by-side.
After thawing, the hepatocytes were distributed (approximately 10^6 cells per 100 mm plate) and incubated approximately 16 hours overnight in Dulbecco's minimal essential medium containing 5% fetal calf serum, 100 units/ml sodium-penicillin, 100 μg/ml streptomycin-sulfate, 1 μM insulin and 2 μM dexamethasone. After washing, cells were incubated first for 2 hours in William's E medium (Sigma-Aldrich, St. Louis, Mo., catalog no. W1878) containing GLUTAMAX™ (Gibco/Invitrogen, Carlsbad, Calif.), 100 units/ml sodium-penicillin, 100 μg/ml streptomycin-sulfate, 10 μM insulin, 100 nM dexamethasone, and then for 2 hours in William's E medium containing 100 units/ml sodium penicillin, 100 μg/ml streptomycin-sulfate, 100 nM dexamethasone, 0.25 mg/ml transferrin, 0.25 μg/ml sodium selenite and 10 μM insulin. Cells were then washed and incubated for 3 hours in the same medium, but lacking insulin. Where indicated, […], […] After incubation, cells were sonicated in homogenizing buffer.
Tissue and Immunoprecipitate Preparations: As previously described (Standaert et al., J. Biol. Chem. 279:24929-24934, 2004; Sajan et al., J. Lipid Res. 50:1133-1145, 2009; Sajan et al., Diabetologia 52:1197-1207, 2009; Farese et al., J. Clin. Invest. 117:2289-2301, 2007) hepatocytes and tissues from in vivo experiments were homogenized in ice-cold buffer containing 0.25 M sucrose, 20 mM Tris/HCl (pH 7.5), 2 mM EGTA, 2 mM EDTA, 1 mM phenylmethylsulfonyl fluoride (PMSF), 20 μg/ml leupeptin, 10 μg/ml aprotinin, 2 mM Na4P2O7, 2 mM Na3VO4, 2 mM NaF, and 1 μM microcystin. After centrifugation for 10 minutes at 700×g to remove unbroken cells, debris, nuclei, and floating fat, cell lysates were stored at −70° C. After addition of 1% TRITON® X-100, 0.6% Nonidet and 150 mM NaCl, lysates were cleared of insoluble materials by low-speed centrifugation and subsequently immunoprecipitated with antibodies that target: (a) aPKCs (rabbit polyclonal antiserum from Santa Cruz Biotechnologies (Santa Cruz, Calif.) that recognizes C-termini of both PKC-λ and PKC-ζ); and (b) Akt2 (Upstate Cell Signaling/Millipore, Billerica, Mass.). Immunoprecipitates were collected on Sepharose-AG beads (Santa Cruz Biotechnologies).
aPKCι Assays: aPKC enzyme activity was measured as previously described (Standaert et al., J. Biol. Chem. 279:24929-24934, 2004; Sajan et al., J. Lipid Res. 50:1133-1145, 2009; Sajan et al., Diabetologia 52:1197-1207, 2009; Farese et al., J. Clin. Invest. 117:2289-2301, 2007). […]

[1] = Het-MλKO mice, ATM 60 mg/kg/day s.c., 7 days
[2] = liver of ICAP-treated Mλ-Het KO mice, relative to wild type = 1

Row | Structure (SMILES) | hepatic ACC mRNA (liver of Het-MλKO mice; Het-MλKO mice) | hepatic FAS mRNA (liver of Het-MλKO mice; Het-MλKO mice) | hepatic active nuclear NFκB/p65/RelA levels (liver of Het-MλKO mice; [1]) | hepatic expression of IL-1β (liver of Het-MλKO mice; [1]) | hepatic expression of TNF-α (liver of Het-MλKO mice; [1]) | hepatic G6 Pase expression (liver of Het-MλKO mice; Het-MλKO mice) | hepatic PEPCK expression (liver of Het-MλKO mice; Het-MλKO mice) | hepatic SREBP-1c mRNA (liver of Het-MλKO mice; Het-MλKO mice) | total aPKC activity in intact hepatocytes (total (ι plus ζ) aPKC; human hepatocytes) | phosphorylation of aPKC auto(trans)phosphorylation sites (p-threonine-555/560-PKC-ι/ζ) (total (ι plus ζ) aPKC) | relative mRNA level, G6Pase (liver of Het-MλKO mice; [2]) | relative mRNA level, PEPCK (liver of Het-MλKO mice; [2]) | relative mRNA level, SREBP-1c (liver of Het-MλKO mice; [2]) | insulin-provoked increase in aPKC activity (total (ι plus ζ) aPKC; non-diabetic human hepatocytes, 6 hours, 100 nM insulin, 100 nM ICAP) | PDK1-dependent phosphorylation of activation loop sites of PKC-ι/ζ (threonine-403/410) (total (ι plus ζ) aPKC; human hepatocytes) | basal immunoprecipitable aPKC activity (total (ι plus ζ) aPKC; human hepatocytes, basal (no insulin)) | inhibition of insulin-stimulated total (ι plus ζ) aPKC activity in intact human hepatocytes (total (ι plus ζ) aPKC; non-diabetic human hepatocytes, 4 hours)
1 | O=C([O-])CC([S][Au])C(=O)[O-] (centres unmarked) [ATM, aurothiomalate, reference compound] | decreased, virtually to normal | decreased, virtually to normal | decreased, virtually to normal | normalized | normalized | diminished | diminished | decreased, virtually to normal | diminished | diminished | – | – | – | – | – | – | –
2 | NC(=O)c1ncn([C@@H]2C[C@H](CO)[C@@H](O)[C@H]2O)c1N [ICAP, 1H-imidazole-4-carboxamide 5-amino-1-[2,3-dihydroxy-4-[hydroxymethyl]cyclopentyl]-[1R-(1α,2β,3β,4α)]] | – | – | – | – | – | decreased | decreased | decreased | – | – | 1.42 | 0.52 | 1.14 | inhibited | – | – | –
3 | NC(=O)c1ncn([C@@H]2C[C@H](COP(=O)(O)O)[C@@H](O)[C@H]2O)c1N [ICAPP, 1H-imidazole-4-carboxamide, 5-amino-1-[2,3-dihydroxy-4-[(phosphonooxy)methyl]cyclopentyl]-[1R-(1α,2β,3β,4α)]] | diminished to wild type levels | diminished to wild type levels | – | – | – | trended downward to or toward control levels | trended downward to or toward control levels | diminished to wild type levels | – | diminished | – | – | – | – | did not inhibit | resistant | approximately 50%
